Experimental data taken from US8241647B2, “Amphiphilic molecule, molecular assembly comprising the amphiphilic molecule, and use of the molecular assembly” (Waseda University, priority 2007, dated 2012).
Entries after “also recorded” stand apart in the source; their conditions may differ.

Legend:
[1] = Concentration of Compound 3 in rat tissue 24 hours after i.v. liposome (LC/MS/MS); assay type: in vivo; conditions: for concentration at 24 h: male, SD, rat, iv, 24 hours after i.v. liposome
Method: A pH-responsive liposome was prepared from mixed lipid (Compound (3)/cholesterol/PEG-Glu2C18=5/5/0.03 (mol)) using the high-pressure extrusion method. In the preparation, the particle size of the liposome was adjusted to 200 to 250 nm. Further, BSA was encapsulated in the internal aqueous phase. The prepared pH-responsive liposome ([Lipid]=20 mg/mL) was intravenously administered to a SD rat (male, body weight of 300 g or less) via the tail vein in an amount of 2 ml/kg under ether anesthesia. The number of rats used was N=3. Prior to the administration and 5 minutes, 1, 2, 6 and 24 hours after the administration, blood was collected (about 500 μL). The obtained blood was subjected to centrifugation (2,000×g, 20 minutes) to obtain plasma (liposome-suspended plasma), and this was preserved at −80° C. Further, after blood was collected 24 hours after the administration, the liver, spleen, lung and kidney were isolated, the wet weight thereof was measured, and these materials were preserved at −80° C. After that, homogenization was carried out using a saline in an amount 4 times greater than the wet weight of the organs.
A material in which the procedure is carried out until 100 μL of methanol is added to 10 μL of homogenate solution of plasma and the organs was used as a sample for measurement of specimen.
To the above-described sample for measurement, a solution to which an internal standard material (1,5-dihexadecyl N-glutamyl-L-glutamate (αGlu-Glu2C16)) was added (900 μL) was added, and the mixture was subjected to vortex stirring. After that, the mixture was allowed to stand at room temperature for at least 10 minutes. After that, the mixture was subjected to vortex stirring again and centrifuged at 4° C. at 10,000×g for 15 minutes. The obtained supernatant was transferred to an LC vial.
An analyte for producing a calibration curve for measurement of tissue was measured, and a calibration curve of 1-100 μg/ml was prepared with weighting of 1/x^2 and Quadratic. The peak area of the analyte for measurement of tissue/IS peak area was substituted into the obtained formula of the calibration curve to calculate the concentration of Compound 3 in tissue (in the calculation, the specific gravity of the tissue homogenate was regarded as 1 g/mL). FIG. 9 is a graph showing the results.

[2] = Degree of fusion with anionic liposome (Example 9); conditions: liposome compound/cholesterol/PEG-Glu2C18, 37°C, 30 minutes
Method: In a manner similar to that in Example 2, the degree of fusion of the pH-responsive liposome with respect to the anionic liposome (DOPC/DPPG, 5/1 (molar ratio)) was calculated. The measurement method was as follows. 50 μL of 1 mM anionic liposome and 50 μL of 9 mM (converted to the mixed lipid basis) pH-responsive liposome were added to 1.9 mL of each of acetate buffers with different pHs and allowed to stand at 37° C. 30 minutes later, […] of the mixture was dividedly poured and added to 1.9 mL of HEPES buffer (pH 7.4). The resultant mixture was transferred to a quartz cell and subjected to fluorescence measurement (λex: 460 nm, 530 nm). The measurement was carried out using RF-5300PC manufactured by Shimadzu.

CCCCCCCCCCCCCCCCOC(=O)CCC(NC(=O)C(CCCCNC(=O)C(N)CCC(=O)O)NC(=O)C(N)CCC(=O)O)C(=O)OCCCCCCCCCCCCCCCC (stereo not drawn) [Compound 3]
distribution of Compound 3 in the organs ([1]; SD rat, 24 hours after the administration of pH-responsive liposome): mainly localized in the liver and spleen; also recorded: Almost no Compound 3 was localized in the kidney and lung
concentration at 24 h ([1]; liver, Liver, Average value): 76800 ng/g
concentration at 24 h ([1]; liver, Liver, animal 1): 110000 ng/g
concentration at 24 h ([1]; liver, Liver, animal 2): 64400 ng/g
concentration at 24 h ([1]; liver, Liver, animal 3): 55600 ng/g
concentration at 24 h ([1]; lung, Lung, Average value): 5600 ng/g
concentration at 24 h ([1]; lung, Lung, animal 1): 5600 ng/g
concentration at 24 h ([1]; lung, Lung, animal 2): 5020 ng/g
concentration at 24 h ([1]; lung, Lung, animal 3): 6170 ng/g
concentration at 24 h ([1]; spleen, Spleen, Average value): 33500 ng/g
concentration at 24 h ([1]; spleen, Spleen, animal 1): 30400 ng/g
concentration at 24 h ([1]; spleen, Spleen, animal 2): 33400 ng/g
concentration at 24 h ([1]; spleen, Spleen, animal 3): 36700 ng/g
degree of fusion ([2]; pH 5.5 (maximum)): about 60%
degree of fusion ([2]; pH 7.4): about 15%
